Measurements reported in publication PMC4301037, “Identification and Structure–Function Analysis of Subfamily Selective G Protein-Coupled Receptor Kinase Inhibitors” (ACS Chemical Biology, 2014).

These compounds were tested against T1, bovine GRK5 (Bos taurus, UniProt P43249) (assay: Primary DSF inhibitor screen, GRK5). Conditions: 10 μM compound, 2 μM kinase, relative to DMSO control.
T1 construct: when using full-length kinases as the receptor[37] instead of isolated kinase domains; made in house
Type: binding

T1 sequence (P43249 whole entry, the tested form may be a part): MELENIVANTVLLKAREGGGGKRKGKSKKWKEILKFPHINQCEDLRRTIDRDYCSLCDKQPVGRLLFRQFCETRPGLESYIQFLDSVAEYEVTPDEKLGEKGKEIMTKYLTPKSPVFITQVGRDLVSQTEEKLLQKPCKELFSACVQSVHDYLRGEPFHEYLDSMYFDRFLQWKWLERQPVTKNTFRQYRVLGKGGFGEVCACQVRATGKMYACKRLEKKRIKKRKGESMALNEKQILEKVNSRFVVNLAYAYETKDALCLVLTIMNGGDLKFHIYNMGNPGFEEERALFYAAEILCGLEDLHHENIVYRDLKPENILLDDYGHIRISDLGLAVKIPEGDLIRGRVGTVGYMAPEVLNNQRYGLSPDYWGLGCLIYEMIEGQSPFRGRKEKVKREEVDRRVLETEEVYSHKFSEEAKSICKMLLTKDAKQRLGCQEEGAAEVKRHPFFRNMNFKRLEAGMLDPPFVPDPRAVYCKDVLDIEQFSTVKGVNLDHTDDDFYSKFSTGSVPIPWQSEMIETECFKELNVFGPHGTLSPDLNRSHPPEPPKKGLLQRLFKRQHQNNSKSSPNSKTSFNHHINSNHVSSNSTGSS

Question: Which “ΔTm, primary screen, GRK5” value does the source give for `O=C1Nc2ccccc2C1=Cc1c(Cl)[nH]c2ccccc12` [3-(2-Chloro-3-indolylmethylene)-1,3-dihydroindol-2-one] here?
Answer: Its value is 2.98 °C.

Question: For `Brc1c(Br)c(Br)c2[nH]nnc2c1Br` [4,5,6,7-Tetrabromobenzo-triazole], which “ΔTm, primary screen, GRK5” value is on record?
Answer: Its value is 8.22 °C.

Question: For `Nc1cc2ncnc(Nc3cccc(Br)c3)c2cc1N` [4-[(3-Bromophenyl)amino]-6,7-diaminoquinazoline], which “ΔTm, primary screen, GRK5” value is on record?
Answer: The value was 6.16 °C.

Question: For `Nc1ncnc2c1c(I)cn2[C@@H]1O[C@H](CO)[C@@H](O)[C@H]1O` [5-Iodotubercidin, 4-Amino-5-iodo-7-(b-D-ribofuranosyl)pyrrolo[2,3-d]pyrimidine], which “ΔTm, primary screen, GRK5” value is on record?
Answer: The value was 2.22 °C.

Question: For `NC1=NC(=O)C(=C2CCNC(=O)c3[nH]c(Br)cc32)N1` [10Z-Hymenialdisine, 4-(2-Amino-4-oxo-2-imidazolidin-5-ylidene)-2-bromo-4,5,6,7-tetrahydropyrrolo[2,3-c]azepin-8-one], which “ΔTm, primary screen, GRK5” value is on record?
Answer: The value was 4.5 °C.

Question: `O=C1Nc2ccccc2/C1=C\c1cnc[nH]1` [(Z,E)-3-(Imidazol-4-ylmethylene)indolin-2-one] was tested. Which “ΔTm, primary screen, GRK5” value did it give?
Answer: Its value is 4.8 °C.

Question: `Nc1nc(Nc2ccc(S(N)(=O)=O)cc2)nn1C(=O)c1c(F)cccc1F` [Aurora/Cdk Inhibitor] was tested. Which “ΔTm, primary screen, GRK5” value did it give?
Answer: The value was 5.41 °C.

Question: `O=C1NC(=O)/C(=C/c2ccc(-c3nc4ccccc4s3)o2)S1` [BAS 09687195] was tested. Which “ΔTm, primary screen, GRK5” value did it give?
Answer: The value was 2.87 °C.

Question: Which “ΔTm, primary screen, GRK5” value does the source give for `O=C1NC(=O)C(c2c[nH]c3ccccc23)=C1c1c[nH]c2ccccc12` [BIM 4, bisindolylmaleimide IV] here?
Answer: The value was 3.11 °C.

Question: Which “ΔTm, primary screen, GRK5” value does the source give for `Cl.Cn1cc(C2=C(c3c4n(c5ccccc35)CCC(CN)C4)C(=O)NC2=O)c2ccccc21` (stereo not drawn) [BIM 10, Bisindolylmaleimide X, HCl] here?
Answer: The value was 6.19 °C.

Question: For `CN(C)CCCn1cc(C2=C(c3c[nH]c4ccccc34)C(=O)NC2=O)c2ccccc21.Cl` [BIM I, 2-[1-(3-Dimethylaminopropyl)-1H-indol-3-yl]-3-(1H-indol-3-yl)maleimide, HCl], which “ΔTm, primary screen, GRK5” value is on record?
Answer: The value was 6.45 °C.

Question: How did the “ΔTm, primary screen, GRK5” value turn out when `CC(C)n1cnc2c(Nc3cccc(Cl)c3)nc(NCCO)nc21` [Compound 52, 2-(2-Hydroxyethylamino)-6-(3-chloroanilino)-9-isopropylpurine] was run?
Answer: Its value is 5.53 °C.

Same assay, conditions: 10 μM compound, 2 μM kinase, relative to DMSO control; read-out: ΔTm, primary screen, GRK5

Question: How did the ΔTm at 10 µM turn out when `O=c1cc(-c2ccc(O)cc2)oc2cc(O)cc(O)c12` [Apigenin, 4',5,7-Trihydroxyflavone] was run?
Answer: The ΔTm at 10 µM was 2.9 °C.

Question: With `CN1CC[C@H](c2c(O)cc(O)c3c(=O)cc(-c4ccccc4Cl)oc23)[C@H](O)C1` [Flavopiridol] as the compound, how does the ΔTm at 10 µM read?
Answer: The ΔTm at 10 µM was 4.13 °C.

Question: `O=C1Nc2ccccc2/C1=C1\CCc2cc(O)ccc21` [GR105659X] was tested. Which ΔTm at 10 µM did it give?
Answer: The ΔTm at 10 µM was 3.25 °C.

Question: How did the ΔTm at 10 µM turn out when `CCNC(=O)O[C@H]1CN[C@H](C#Cc2cc3ncnc(Nc4ccc(OCc5cccc(F)c5)c(Cl)c4)c3s2)C1` [GSK192082A] was run?
Answer: Its ΔTm at 10 µM is 2.97 °C.

Question: With `CN(C)C(=O)O[C@@H]1CN[C@@H](C#Cc2cc3ncnc(Nc4ccc(OCc5cccc(F)c5)c(Cl)c4)c3s2)C1` [GSK238063A] as the compound, how does the ΔTm at 10 µM read?
Answer: Its ΔTm at 10 µM is 2.93 °C.

Question: Which ΔTm at 10 µM does the source give for `C[C@@H](Oc1cc(-n2cnc3ccc(OCC4CCN(C)CC4)cc32)sc1C(N)=O)c1ccccc1C(F)(F)F` [GSK326090A] here?
Answer: Its ΔTm at 10 µM is 2.06 °C.

Question: Which ΔTm at 10 µM does the source give for `CC1=C(C(=O)Nc2ccc3[nH]nc(C)c3c2)C(c2ccc(C(F)(F)F)cc2)CC(=O)N1` (stereo not drawn) [GSK466314A] here?
Answer: Its ΔTm at 10 µM is 3.54 °C.

Question: For `Fc1cccc(COc2ccc(Nc3ncnc4sc(-c5ccco5)cc34)cc2Cl)c1` [GSK969786A], which ΔTm at 10 µM is on record?
Answer: The ΔTm at 10 µM was 2.11 °C.

Question: `CCCN1CCC=C(c2ccc(Nc3nc(Nc4ccccc4C(N)=O)c4cc[nH]c4n3)c(C)c2)C1` [GSK994854A] was tested. Which ΔTm at 10 µM did it give?
Answer: The ΔTm at 10 µM was 4.92 °C.

Question: How did the ΔTm at 10 µM turn out when `CCCN1CCCC(c2ccc(Nc3nc(Nc4cc(F)ccc4C(N)=O)c4cc[nH]c4n3)c(OC)c2)C1` (stereo not drawn) [GSK1173862A] was run?
Answer: The ΔTm at 10 µM was 4.75 °C.

Question: How did the ΔTm at 10 µM turn out when `COc1cc(N2CCN(C(C)C)CC2)ccc1Nc1nc(Nc2ccc(F)cc2C(N)=O)c2cc[nH]c2n1` [GSK1220512A] was run?
Answer: Its ΔTm at 10 µM is 3.05 °C.

Question: Which ΔTm at 10 µM does the source give for `COc1cc(C)c(N(C)C(=O)CN(C)C)cc1Nc1nc(Nc2cccc(F)c2C(N)=O)c2cc[nH]c2n1` [GSK2219385A] here?
Answer: Its ΔTm at 10 µM is 3.58 °C.

Question: How did the ΔTm at 10 µM turn out when `c1ccc(COc2ccc(Nc3ncnc4ccc(-c5ccco5)cc34)cc2)cc1` [GW284372X] was run?
Answer: Its ΔTm at 10 µM is 3.6 °C.

Question: With `O=C1Nc2ccccc2/C1=C/Nc1ccc2[nH]c(=O)[nH]c2c1` [GW284408X] as the compound, how does the ΔTm at 10 µM read?
Answer: The ΔTm at 10 µM was 2.4 °C.

Question: With `NS(=O)(=O)c1ccc(NN=C2C(=O)Nc3ccc(C(=O)NCCCn4ccnc4)cc32)cc1` [GW290597X] as the compound, how does the ΔTm at 10 µM read?
Answer: Its ΔTm at 10 µM is 3.72 °C.

Question: Which ΔTm at 10 µM does the source give for `NS(=O)(=O)c1ccc(NN=C2C(=O)Nc3ccc(C(=O)NCc4ccncc4)cc32)cc1` [GW300657X] here?
Answer: The ΔTm at 10 µM was 3.89 °C.

Question: How did the ΔTm at 10 µM turn out when `NS(=O)(=O)c1ccc(N/N=C2\C(=O)Nc3ccc(C(=O)NCCc4c[nH]cn4)cc32)cc1` [GW300660X] was run?
Answer: Its ΔTm at 10 µM is 3.03 °C.

Question: For `CC(C)=Cc1cccc2c1C(=NNc1ccc(S(N)(=O)=O)cc1)C(=O)N2` [GW396574X], which ΔTm at 10 µM is on record?
Answer: The ΔTm at 10 µM was 2.08 °C.

Question: With `Cc1cc(O)cc(C)c1/C=C/c1cncc(C(=O)OC(C)(C)C)c1` [GW439255X] as the compound, how does the ΔTm at 10 µM read?
Answer: The ΔTm at 10 µM was 2.66 °C.

Question: `Cn1cc(C=C2C(=O)Nc3cccnc32)c2ccccc21` [GW441756X] was tested. Which ΔTm at 10 µM did it give?
Answer: Its ΔTm at 10 µM is 2.82 °C.

Question: `CS(=O)(=O)CCNCc1coc(-c2ccc3ncnc(Nc4ccc(OCc5ccccc5)cc4)c3c2)c1` [GW566221A] was tested. Which ΔTm at 10 µM did it give?
Answer: Its ΔTm at 10 µM is 2.58 °C.

Question: How did the ΔTm at 10 µM turn out when `CS(=O)(=O)CCNCc1ccc(-c2ccc3ncnc(Nc4ccc(OCc5ccccc5)c(Cl)c4)c3c2)o1` [GW574783B] was run?
Answer: The ΔTm at 10 µM was 4.25 °C.

Question: Which ΔTm at 10 µM does the source give for `CS(=O)(=O)CCNCc1ccc(-c2ccc3ncnc(Nc4ccc(OCc5ccccc5)c(Br)c4)c3c2)o1` [GW580496A] here?
Answer: The ΔTm at 10 µM was 4.33 °C.

Question: `NS(=O)(=O)c1ccc(NC=C2C(=O)Nc3ccc4ncsc4c32)cc1` [GW589933X] was tested. Which ΔTm at 10 µM did it give?
Answer: The ΔTm at 10 µM was 4.8 °C.

Question: For `COC(=O)Nc1nc2ccc(Sc3ccc(NC(=O)Nc4cc(C(F)(F)F)ccc4F)cc3)cc2[nH]1` [GW607049C], which ΔTm at 10 µM is on record?
Answer: The ΔTm at 10 µM was 3.59 °C.

Question: With `CS(=O)(=O)CCN(CC#N)Cc1ccc(-c2ccc3ncnc(Nc4ccc(OCc5cccc(F)c5)c(Cl)c4)c3c2)o1` [GW616030X] as the compound, how does the ΔTm at 10 µM read?
Answer: Its ΔTm at 10 µM is 3.29 °C.

Question: How did the ΔTm at 10 µM turn out when `CCS(=O)(=O)c1ccc(OC)c(Nc2ncc(-c3ccccc3Cl)o2)c1` [GW622055X] was run?
Answer: The ΔTm at 10 µM was 2.14 °C.

Question: How did the ΔTm at 10 µM turn out when `O=S(=O)(CCNCc1ccc(-c2ccc3ncnc(Nc4ccc(OCc5cccc(F)c5)c(Cl)c4)c3c2)o1)c1ccccc1` [GW633459A] was run?
Answer: The ΔTm at 10 µM was 3.27 °C.

Question: How did the ΔTm at 10 µM turn out when `COC(=O)Nc1nc2ccc(Oc3cccc(NC(=O)Nc4cc(C(F)(F)F)ccc4F)c3)cc2[nH]1` [GW659386A] was run?
Answer: The ΔTm at 10 µM was 2.51 °C.

Question: With `COC(=O)Nc1nc2ccc(S(=O)(=O)c3ccc(NC(=O)Nc4cc(C(F)(F)F)ccc4F)cc3)cc2[nH]1` [GW680908A] as the compound, how does the ΔTm at 10 µM read?
Answer: The ΔTm at 10 µM was 4.07 °C.

Question: Which ΔTm at 10 µM does the source give for `O=C(Nc1ccc(Oc2ccc3nc(NC(=O)c4ccco4)[nH]c3c2)cc1)Nc1cc(C(F)(F)F)ccc1F` [GW683134A] here?
Answer: Its ΔTm at 10 µM is 2.32 °C.

Question: For `CCc1nn2ncccc2c1-c1ccnc(NC2CC2)n1` [GW683768X], which ΔTm at 10 µM is on record?
Answer: Its ΔTm at 10 µM is 2.22 °C.

Question: How did the ΔTm at 10 µM turn out when `COC(=O)Nc1nc2ccc(Oc3ccc(NC(=O)Nc4cccc(Br)c4)cc3)cc2[nH]1` [GW694234A] was run?
Answer: Its ΔTm at 10 µM is 4.08 °C.

Question: Which ΔTm at 10 µM does the source give for `CN1CCN(CCCNc2nc3ccc(Oc4ccc(NC(=O)Nc5cc(C(F)(F)F)ccc5F)cc4)cc3[nH]2)CC1` [GW700494A] here?
Answer: The ΔTm at 10 µM was 3.97 °C.

Question: How did the ΔTm at 10 µM turn out when `COC(=O)Nc1nc2ccc(Oc3ccc(NC(=O)Nc4cccc(C(=O)O)c4)cc3)cc2[nH]1` [GW701427A] was run?
Answer: The ΔTm at 10 µM was 3.25 °C.

Question: Which ΔTm at 10 µM does the source give for `CC(=O)Nc1cccc(C#Cc2cncnc2Nc2ccc(OCc3cccc(F)c3)c(Cl)c2)c1` [GW703087X] here?
Answer: The ΔTm at 10 µM was 3.36 °C.

Question: How did the ΔTm at 10 µM turn out when `O=C(Nc1ccc(Oc2ccc3nc(NC(=O)c4ccccc4)[nH]c3c2)cc1)Nc1cc(C(F)(F)F)ccc1F` [GW709042A] was run?
Answer: Its ΔTm at 10 µM is 3.88 °C.

Question: How did the ΔTm at 10 µM turn out when `NC(=O)c1cccc(Nc2nccc(Nc3cccc(F)c3)n2)c1` [GW759710A] was run?
Answer: Its ΔTm at 10 µM is 2.68 °C.

Same assay, conditions: read-out: ΔTm, primary screen, GRK5, 10 μM compound, 2 μM kinase, relative to DMSO control

Question: `c1cc(-c2cnn3nc(N4CCOCC4)ccc23)nc(NC2CC2)n1` [GW708336X] was tested. Which ΔTm at 10 µM did it give?
Answer: The ΔTm at 10 µM was 2.8 °C.
